The source of these data is patent EP1182931B1, “STABLE BIOCIDAL COMPOSITIONS” (NUFARM LIMITED, priority 1999, dated 2000).

Assay [1] concerns gastrointestinal roundworm. Kind of assay: Sheep trial CO52: faecal egg count reduction. Conditions: lambs, oral, six days after treatment, versus untreated controls, arithmetic mean. Format: in vivo. The method, then:
An anthelmintic drench trial was conducted on a sheep farm in North Auckland, New Zealand using 67 Romney and Romney cross suffock lambs (18-35kg bodyweight) of mixed sex.
The 67 lambs were randomly allocated by egg count into 4 groups of 10 lambs (Groups A, B, C, D) and 3 groups of 9 lambs (Groups E, F, G). The 3 groups of 9 lambs (E, F G) were drenched with a commercial formulation from one of the three broad spectrum anthelmintic drench families consisting of albendazole, a member of the benzimidazole or white drenches (Group E), levamisole, a member of the imidazothiazole / tetrahydropyrimidazole or clear drenches (Group F) and Ivermectin, a member of the macrocyclic lactones (Group G). Of the 4 remaining groups, Group A remained as untreated controls, Group B received the unmineralised test product (formulation 00-27C) containing all 3 actives (albendazole, levamisole, ivermectin), Group C received the same basic formulation but with the addition of selenium as the sodium selenate (formulation 00-27B) and Group D received the same basic formulation but with the addition of both selenium and cobalt with cobalt given as the cobalt chelate (formulation 00-27A) - See Table 27.
All animals were weighed and dosed by syringe to the nearest 0.1ml with the appropriate product for that group. Six days after oral treatment the animals were slaughtered and faecal samples were collected at slaughter.

The test system of the next assay is Haemonchus. Kind of assay: Trial C0040 sheep roundworm and tapeworm trial: worm count. Format: in vivo. Conditions: lambs, oral, slaughter Day 7 and Day 8, arithmetic means. The method, then:
(§1) Fifty three pasture fed 6-8 month old Romney lambs from the southern North Island, New Zealand that were naturally infected with tapeworms, were orally dosed with three times the standard dose of ivermectin (3 x 0.2 = 0.6mg/kg liveweight) to remove their naturally acquired roundworm infection while leaving their tapeworm burden. The animals were then housed indoors on slats to prevent natural reinfections with roundworms and each lamb was orally dosed daily for 5 days with a similar mixture of 5,000 roundworm larvae (total 25,000 larvae) consisting primarily of Haemonchus, Trichostrongylus, Ostertagia and Nematodirus. The larvae originated from four New Zealand sheep farms, three of which had evidence of resistance to one or more drench families. Lambs were injected with 0.5mL of a corticosteroid (opticortenol) two days prior to artificial oral larval infection. This was done to assist establishment of the worm larvae. 25 days after infection the animals were restrictively allocated to groups by bodyweight and also the presence of tapeworm infection, to one of seven treatment groups (Groups A-G). Four treatment groups (the untreated control and test products Groups A-D) had 8 animals per group, and three groups (E-G) contained 7 animals per group. The groups with 7 animals per group (E, F, G) were orally dosed with a single standard commercial product. All animals were slaughtered at Day 7 and Day 8 after treatment and total numbers of gastrointestinal roundworms and tapeworms counted.

For another assay, the system named is Nematodirus. The assay is described as above. Type of assay: in vivo. The settings on record: lambs, oral, slaughter Day 7 and Day 8. The method, then: as §1
In a further assay the test system is Ostertagia. The assay is described as above. Format: in vivo. The settings on record: lambs, oral, slaughter Day 7 and Day 8. The method, then: as §1
In another assay the test system is Trichostrongylus. The assay is described as above. Type of assay: in vivo. Conditions: lambs, oral, slaughter Day 7 and Day 8. On the procedure:
as §1

Another assay concerns Moniezia. Kind of assay: Trial C0040 sheep roundworm and tapeworm trial: tapeworm count. The settings on record: lambs, oral, slaughter Day 7 and Day 8. Format: in vivo. The method, then:
as §1, with “The groups with 7 animals per group (E, F, G) were orally dosed with a single standard commercial product.” left out

In a further assay the test system is Protozoa. The settings on record: Spectrum of Activity; cited from earlier work.
In a further assay the test system is Gastrointestinal Worms. The settings on record: Spectrum of Activity; cited from earlier work.

Regarding `CCCSc1ccc2nc(NC(=O)OC)[nH]c2c1` [Albendazole], the “reductions in egg count” value in assay [1] was determined as 63%. Moreover, the “reduction in worm numbers, Haemonchus” value in the assay with Haemonchus came out at 93%. In addition, the “reduction of Nematodirus in the small intestine” value (shortened to “reduction of Nematodirus”) in the assay on Nematodirus was 59%. The “removal of worm numbers, Ostertagia” value in the assay with Ostertagia amounted to 64%. In the assay on Trichostrongylus, the “efficacy against Trichostrongylus in the small intestine” value worked out at 80%. Further, in the assay on Moniezia, the “effect on tapeworm Moniezia” value is given as “slight trend to less Moniezia volume”. Besides, the Protozoa entry in the assay with Protozoa is listed as “+(Giardia)”.
Consider `Cc1cc(C(C#N)c2ccc(Cl)cc2)c(Cl)cc1NC(=O)c1cc(I)cc(I)c1O` (stereo not drawn) [Closantel], for which the “Nematodes Gastrointestinal Worms” value with Gastrointestinal Worms is “+(Haemonchus)”.
For `COC(=O)Nc1nc2cc(Sc3ccccc3)ccc2[nH]1` [Fendendazole], in the assay with Protozoa, the Protozoa result is recorded as “+(Giardia)”.
For the molecule `c1ccc([C@H]2CN3CCSC3=N2)cc1` [Levamisole], the “reductions in egg count” value in assay [1] is 22%. Moreover, the “reduction of Nematodirus” value in the assay with Nematodirus is 99%. Besides, the “removal of worm numbers, Ostertagia” value in the assay with Ostertagia was determined as 96%.
Turning to `N#Cc1cc(I)c(O)c([N+](=O)[O-])c1` [Nitroxyinil], the “Nematodes Gastrointestinal Worms” value with Gastrointestinal Worms is listed as “+(Haemonchus)”.
`O=C(Nc1cc(Cl)cc(Cl)c1O)c1c(O)c(Cl)cc(Cl)c1Cl` [Oxydosanide]: the “Nematodes Gastrointestinal Worms” value in the assay with Gastrointestinal Worms was “+(Haemonchus)”.
In the case of `O=C(Nc1ccc(Oc2ccc(Cl)cc2)c(Cl)c1)c1cc(I)cc(I)c1O` [Rafoxamide], the “Nematodes Gastrointestinal Worms” value in the assay on Gastrointestinal Worms is “+(Haemonchus)”.
As to Ivermectin, the “reductions in egg count” value in assay [1] amounted to 79%. For the same molecule, the “reduction of Nematodirus” value in the assay with Nematodirus is recorded as 100%. Moreover, the “removal of worm numbers, Ostertagia” value in the assay with Ostertagia worked out at 54%.
